In patent US11535621B2, “Heterobicyclic amides as inhibitors of CD38” (Ribon Therapeutics, Inc., priority 2019, dated 2022):

Molecular target: Human CD38 (Homo sapiens (Human), UniProt P28907)
Test: CD38 enzyme assay
Assay type: biochemical
Conditions: 2 nM CD38, NAD+ substrate, absorbance at 405 nm
Source text: [formula] where SUBcmpd is the subtracted value for the individual compound treated well, SUBmin is the average of the subtracted values of the 4-(((1r,4r)-4-(2-methoxyethoxy)cyclohexyl)amino)-1-methyl-6-(thiazol-5-yl)quinolin-2(1H)-one positive control wells and SUBmax is the average of the subtracted values of the DMSO negative control wells.
The % inhibition values were plotted as a function of compound concentration and the following 4-parameter fit was applied to derive the IC50 values:
[formula] where top and bottom are normally allowed to float, but may be fixed at 100 or 0 respectively in a 3-parameter fit. The Hill Coefficient is normally allowed to float but may also be fixed at 1 in a 3-parameter fit. Y is the % inhibition and X is the compound concentration.

Human CD38, sequence (P28907 whole entry): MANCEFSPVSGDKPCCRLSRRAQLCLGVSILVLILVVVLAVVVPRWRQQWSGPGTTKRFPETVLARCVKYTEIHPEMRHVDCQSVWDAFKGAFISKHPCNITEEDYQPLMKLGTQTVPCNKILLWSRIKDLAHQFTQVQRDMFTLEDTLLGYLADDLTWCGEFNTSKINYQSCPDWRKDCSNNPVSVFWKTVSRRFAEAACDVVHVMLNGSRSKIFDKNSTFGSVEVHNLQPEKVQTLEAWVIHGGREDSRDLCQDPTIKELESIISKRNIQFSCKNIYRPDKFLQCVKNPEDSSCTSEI

IC50 [nM] | SMILES
10 to 100 | O=C(N[C@H]1CCCOC1)c1nc(-n2ccnc2)nc2cc[nH]c12 (single isomer, unassigned) [Example 28a]
< 10 | O=C(N[C@@H]1CCCOC1)c1nc(-n2ccnc2)nc2cc[nH]c12 (single isomer, unassigned) [Example 28b]
10 to 100 | CC(C)[C@@H](O)CO[C@H]1CC[C@H](NC(=O)c2nc(-n3ccnc3)nc3cc[nH]c23)CC1 (single isomer, unassigned) [Example 119a]
10 to 100 | CC(C)[C@H](O)CO[C@H]1CC[C@H](NC(=O)c2nc(-n3ccnc3)nc3cc[nH]c23)CC1 (single isomer, unassigned) [Example 119b]
10 to 100 | C[C@@H](O)CO[C@H]1CC[C@H](NC(=O)c2nc(-n3ccnc3)nc3cc[nH]c23)CC1 (single isomer, unassigned) [Example 125a]
10 to 100 | CC(C)[C@@](C)(O)CO[C@H]1CC[C@H](NC(=O)c2nc(-n3ccnc3)nc3cc[nH]c23)CC1 (single isomer, unassigned) [Example 126a]
10 to 100 | C[C@@](O)(C(=O)N[C@H]1CC[C@H](NC(=O)c2nc(-n3ccnc3)nc3cc[nH]c23)CC1)C(F)(F)F (single isomer, unassigned) [Example 127a]
10 to 100 | C[C@H](O)CO[C@H]1CC[C@H](NC(=O)c2nc(-n3ccnc3)cc3cn[nH]c23)CC1 (single isomer, unassigned) [Example 207]
10 to 100 | C[C@@H](O)CO[C@H]1CC[C@H](NC(=O)c2nc(-n3ccnc3)cc3cn[nH]c23)CC1 (single isomer, unassigned) [Example 208]
< 10 | C[C@@H](O)[C@H]1CC[C@H](NC(=O)c2nc(-n3ccnc3)nc3ccsc23)CC1 (single isomer, unassigned) [Example 267a]
10 to 100 | C[C@H](O)[C@H]1CC[C@H](NC(=O)c2nc(-n3ccnc3)nc3ccsc23)CC1 (single isomer, unassigned) [Example 267b]
100 to 1000 | COCCO[C@H]1CC[C@H](NC(=O)c2cc(-n3ccnc3)cc3nc[nH]c23)CC1 [Example 1, 5-(1H-Imidazol-1-yl)-N-((1r,4r)-4-(2-methoxyethoxy)cyclohexyl)-1H-benzo[d]imidazole-7-carboxamide]
> 1000 | O=C(NCc1c(F)cccc1C(F)(F)F)c1cc(-n2ccnc2)cc2nc[nH]c12 [Example 2, N-(2-Fluoro-6-(trifluoromethyl)benzyl)-5-(1H-imidazol-1-yl)-1H-benzo[d]imidazole-7-carboxamide]
100 to 1000 | O=C(NCc1c(F)cccc1C(F)(F)F)c1cc(-c2cncs2)cc2nc[nH]c12 [Example 3, N-[[2-Fluoro-6-(trifluoromethyl)phenyl]methyl]-6-thiazol-5-yl-3H-benzimidazole-4-carboxamide]
100 to 1000 | COCCO[C@H]1CC[C@H](NC(=O)c2cc(-c3cncs3)cc3nc[nH]c23)CC1 [Example 4, N-((1r,4r)-4-(2-Methoxyethoxy)cyclohexyl)-5-(thiazol-5-yl)-1H-benzo[d]imidazole-7-carboxamide]
100 to 1000 | O=C(NCc1c(F)cccc1C(F)(F)F)c1cc(-n2ccnc2)cc2cc[nH]c12 [Example 5, N-(2-Fluoro-6-(trifluoromethyl)benzyl)-5-(1H-imidazol-1-yl)-1H-indole-7-carboxamide]
100 to 1000 | COCCO[C@H]1CC[C@H](NC(=O)c2cc(-n3ccnc3)cc3cc(C)[nH]c23)CC1 [Example 9, 5-(1H-Imidazol-1-yl)-N-((1r,4r)-4-(2-methoxyethoxy)cyclohexyl)-2-methyl-1H-indole-7-carboxamide]
10 to 100 | COCCO[C@H]1CC[C@H](NC(=O)c2cc(-n3ccnc3)nc3cc[nH]c23)CC1 [Example 10, 5-(1H-imidazol-1-yl)-N-((1r,4r)-4-(2-methoxyethoxy)cyclohexyl)-1H-pyrrolo[3,2-b]pyridine-7-carboxamide]
10 to 100 | Cc1cc2cc(-c3cncs3)cc(C(=O)NCc3c(F)cccc3C(F)(F)F)c2[nH]1 [Example 11, N-(2-Fluoro-6-(trifluoromethyl)benzyl)-2-methyl-5-(thiazol-5-yl)-1H-indole-7-carboxamide]
10 to 100 | COCCO[C@H]1CC[C@H](NC(=O)c2nc(-n3ccnc3)cc3cc[nH]c23)CC1 [Example 12, 5-(1H-Imidazol-1-yl)-N-((1r,4r)-4-(2-methoxyethoxy)cyclohexyl)-1H-pyrrolo[2,3-c]pyridine-7-carboxamide]
100 to 1000 | COCCO[C@H]1CC[C@H](NC(=O)c2cc(-c3cncs3)cc3nc(C)[nH]c23)CC1 [Example 13, N-((1r,4r)-4-(2-Methoxyethoxy)cyclohexyl)-2-methyl-5-(thiazol-5-yl)-1H-benzo[d]imidazole-7-carboxamide]
10 to 100 | COCCO[C@H]1CC[C@H](NC(=O)c2nc(-n3ccnc3)nc3nc[nH]c23)CC1 [Example 14, 2-(1H-Imidazol-1-yl)-N-((1r,4r)-4-(2-methoxyethoxy)cyclohexyl)-7H-purine-6-carboxamide]
100 to 1000 | O=C(NCc1c(F)cccc1C(F)(F)F)c1cc(-n2ccnc2)nc2cn[nH]c12 [Example 15, N-(2-Fluoro-6-(trifluoromethyl)benzyl)-5-(1H-imidazol-1-yl)-1H-pyrazolo[4,3-b]pyridine-7-carboxamide]
10 to 100 | COCCO[C@H]1CC[C@H](NC(=O)c2nc(-n3ccnc3)cc3cn[nH]c23)CC1 [Example 16, 5-(1H-Imidazol-1-yl)-N-((1r,4r)-4-(2-methoxyethoxy)cyclohexyl)-1H-pyrazolo[3,4-c]pyridine-7-carboxamide]
100 to 1000 | COCCO[C@H]1CC[C@H](NC(=O)c2cc(-c3cncs3)nc3cn[nH]c23)CC1 [Example 17, N-((1r,4r)-4-(2-Methoxyethoxy)cyclohexyl)-5-(thiazol-5-yl)-1H-pyrazolo[4,3-b]pyridine-7-carboxamide]
10 to 100 | COCCO[C@H]1CC[C@H](NC(=O)c2nc(-n3ccnc3)nc3ccsc23)CC1 [Example 18, 2-(1H-Imidazol-1-yl)-N-((1r,4r)-4-(2-methoxyethoxy)cyclohexyl)thieno[3,2-d]pyrimidine-4-carboxamide]
10 to 100 | COCCO[C@H]1CC[C@H](NC(=O)c2cc(-n3ccnc3)cc3cc(CN)[nH]c23)CC1 [Example 19, 2-(Aminomethyl)-5-(1H-imidazol-1-yl)-N-((1r,4r)-4-(2-methoxyethoxy)cyclohexyl)-1H-indole-7-carboxamide]
100 to 1000 | O=C(NCc1c(F)cccc1C(F)(F)F)c1nc(-c2cncs2)nc2ccsc12 [Example 20, N-(2-Fluoro-6-(trifluoromethyl)benzyl)-2-(thiazol-5-yl)thieno [3,2-d]pyrimidine-4-carboxamide]
100 to 1000 | COCCO[C@H]1CC[C@H](NC(=O)c2nc(-c3cncs3)cc3cn[nH]c23)CC1 [Example 21, N-((1r,4r)-4-(2-Methoxyethoxy)cyclohexyl)-5-(thiazol-5-yl)-1H-pyrazolo[3,4-c]pyridine-7-carboxamide]
10 to 100 | COCCO[C@H]1CC[C@H](NC(=O)c2nc(-n3ccnc3)nc3ccn(C)c23)CC1 [Example 22, 2-(1H-Imidazol-1-yl)-N-((1r,4r)-4-(2-methoxyethoxy)cyclohexyl)-5-methyl-5H-pyrrolo[3,2-d]pyrimidine-4-carboxamide]
